Experimental data reported in PubChem BioAssay AID2060344 (Molecular Pharmacology Branch, DTP, NCI, 2025).

Test system: SK-MEL-2 multi-cell spheroids, viability
Assay: Anticancer human tumor SK-MEL-2 cell line growth inhibition [TAK];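 note: spheroids exposed to drugs for seven days before readout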;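 for viability, T/C: percent of DMSO vehicle control luminescence so 100% = untreated viability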
Details: for IC50: curve of first compound; for viability, T/C: stronger effect = lower value
Source text: Combinatorial screen of targeted agents with TAK-243 and ipatasertib in multi-cell type tumor spheroids
A high-throughput screen of multi-cell type tumor spheroids was designed to identify active combinations of targeted small molecules and TAK-243 or ipatasertib. Complex spheroids include a stromal component modeled by human endothelial cells (HUVEC) and fibroblasts modeled by human mesenchymal stem cells (MSCs). The concentration ranges selected for each drug and investigational agent were based upon clinically achievable concentrations if the clinical Cmax of the agent was known.
Compounds. The drugs and investigational agents: TAK-243 (785004), ipatasertib (767898), everolimus (733504), selumetinib (741078), bortezomib (756655), trametinib (758246), ixazomib (758254), vemurafenib (761431), dabrafenib (764134), sapanisertib (764658), alpelisib (765974), and copanlisib (816437), were obtained from the National Cancer Institute (NCI) Developmental Therapeutics Program Chemical Repository. The FDA-approved anticancer drug set is available from the NCI Developmental Therapeutics Program. […] The stock solutions were prepared in dimethyl sulfoxide (DMSO, Sigma-Aldrich, St. Louis, MO, cat. D2650) at 800-fold the tested concentration and stored at -70 degrees C prior to their use. All drugs and investigational agents were tested over a range starting from a high concentration at or near the clinical Cmax and decreasing in half-log increments. If the clinical Cmax for an agent had not been determined, the highest concentration tested was 10 microM.
NCI60 Cell Culture. NCI60 cell lines were obtained from the NCI Developmental Therapeutics Program Tumor Repository. For each lot of cells, the Repository performed Applied Biosystems AmpFLSTR Identifiler testing with PCR amplification to confirm consistency with the published Identifier STR profile for each cell line. Cells were kept in continuous culture for no more than 20 passages. The optimal seeding densities for each of the cell lines at each time point assessed were determined prior to performing the concentration response studies. Briefly, the NCI60 human tumor lines were grown as monolayers in RPMI 1640 medium supplemented with 10% FBS and 2 mmol/L L-glutamine.
An additional 2 lines were from the NCI60 cell line panel including melanomas, MALME-3M and SK-MEL-2. Pooled donor human umbilical vein endothelial cells (HUVEC, Lonza, cat. CC-2519) and human mesenchymal stem cells (hMSC, Lonza, cat. PT-2501) were purchased from Lonza (Walkersville, MD).
PDMR cell lines were grown in complete medium (DC medium): Dulbecco's modified Eagle's medium (DMEM)/F12 supplemented with 5% fetal bovine serum (FBS), 2 mM L-glutamine, 100 U/mL penicillin and 100 µg/ml streptomycin, 0.4 µg/ml hydrocortisone, 10 ng/ml epidermal growth factor (EGF) recombinant human protein, 24 µg/mL adenine, and 0.1 mg/mL primocin. During culture from frozen stock vials, PDMR cells were cultured in the same medium containing 10 µM Y-27632 (see Table 3). The PDCs were cultured in complete DMEM/F12 media without 10 microM Y-27632 dihydrochloride for at least two passages prior to the screen. The pooled donor HUVEC and hMSC were cultured in endothelial cell growth medium 2 (PromoCell, Heidelberg, Germany, cat. C-22011) and mesenchymal stem cell growth medium 2 (PromoCell, cat. C-28009), respectively. For all experiments, HUVEC and hMSC were used at passages </=5.
For the pre-screen, cell seeding densities were determined from a titration spanning the range from 5,000 to 313 cells per well. The mct-spheroids including 60% malignant cells, 25% HUVEC and 15% MSC dispensed as a mixture into U-bottom Ultra-Low Attachment 384-well plates (Corning, NY)
High-throughput Drug Combination Screening.
Prior to their inoculation into 384-well plates, malignant cells, HUVEC, and hMSC were removed from T flasks using TrypLE express (Thermo Fisher Scientific, cat. 12605036) and harvested by centrifugation for 5 min at 233 x g. […]

[1] = second compound 0.3 µM, first compound 0.00949 µM
[2] = second compound 0.3 µM, first compound 0.03 µM
[3] = second compound 0.949 µM, first compound 0.00949 µM
[4] = second compound 0.949 µM, first compound 0.03 µM
[5] = second compound 3 µM, first compound 0.00949 µM
[6] = second compound 3 µM, first compound 0.03 µM
[7] = second compound 9.49 µM, first compound 0.00949 µM
[8] = second compound 9.49 µM, first compound 0.03 µM
[9] = second compound 30 µM, first compound 0.00949 µM
[10] = second compound 30 µM, first compound 0.03 µM

CC(=O)Nc1cccc(-n2c(=O)n(C3CC3)c(=O)c3c(Nc4ccc(I)cc4F)n(C)c(=O)c(C)c32)c1 + CC(C)NCC(C(=O)N1CCN(c2ncnc3c2C(C)CC3O)CC1)c1ccc(Cl)cc1
IC50 (second compound 0.3 µM): 0.203 nM
IC50 (second compound 0.949 µM): 0.15 nM
IC50 (second compound 3 µM): < 0.0949 nM
IC50 (second compound 9.49 µM): < 0.0949 nM
IC50 (second compound 30 µM): < 0.0949 nM
viability, T/C (second compound 0.3 µM, first compound 94.9 pM): 78.9%
viability, T/C (second compound 0.3 µM, first compound 0.0003 µM): 35.2%
viability, T/C (second compound 0.3 µM, first compound 0.000949 µM): 10.4%
viability, T/C (second compound 0.3 µM, first compound 0.003 µM): 5.62%
viability, T/C [1]: 2.19%
viability, T/C [2]: 1.65%
viability, T/C (second compound 0.949 µM, first compound 94.9 pM): 63.2%
viability, T/C (second compound 0.949 µM, first compound 0.0003 µM): 29.8%
viability, T/C (second compound 0.949 µM, first compound 0.000949 µM): 10.2%
viability, T/C (second compound 0.949 µM, first compound 0.003 µM): 3.49%
viability, T/C [3]: 1.83%
viability, T/C [4]: 1.53%
viability, T/C (second compound 3 µM, first compound 94.9 pM): 47%
viability, T/C (second compound 3 µM, first compound 0.0003 µM): 21%
viability, T/C (second compound 3 µM, first compound 0.000949 µM): 3.96%
viability, T/C (second compound 3 µM, first compound 0.003 µM): 2.14%
viability, T/C [5]: 1.28%
viability, T/C [6]: 0.92%
viability, T/C (second compound 9.49 µM, first compound 94.9 pM): 39%
viability, T/C (second compound 9.49 µM, first compound 0.0003 µM): 19.2%
viability, T/C (second compound 9.49 µM, first compound 0.000949 µM): 5.57%
viability, T/C (second compound 9.49 µM, first compound 0.003 µM): 1.46%
viability, T/C [7]: 1.58%
viability, T/C [8]: 0.65%
viability, T/C (second compound 30 µM, first compound 94.9 pM): 39.5%
viability, T/C (second compound 30 µM, first compound 0.0003 µM): 17.5%
viability, T/C (second compound 30 µM, first compound 0.000949 µM): 3.27%
viability, T/C (second compound 30 µM, first compound 0.003 µM): 1.19%
viability, T/C [9]: 0.56%
viability, T/C [10]: 1.06%

CC(C)CC(NC(=O)C(Cc1ccccc1)NC(=O)c1cnccn1)B(O)O (stereo not given) + CC(C)NCC(C(=O)N1CCN(c2ncnc3c2C(C)CC3O)CC1)c1ccc(Cl)cc1
IC50 (second compound 0.3 µM): > 10 nM
IC50 (second compound 0.949 µM): > 10 nM
IC50 (second compound 3 µM): > 10 nM
IC50 (second compound 9.49 µM): 4.24 nM
IC50 (second compound 30 µM): 7.76 nM
viability, T/C (second compound 0.3 µM, first compound 31.6 pM): 116%
viability, T/C (second compound 0.3 µM, first compound 0.0001 µM): 110%
viability, T/C (second compound 0.3 µM, first compound 0.000316 µM): 104%
viability, T/C (second compound 0.3 µM, first compound 0.001 µM): 117%
viability, T/C (second compound 0.3 µM, first compound 0.00316 µM): 122%
viability, T/C (second compound 0.3 µM, first compound 0.01 µM): 103%
viability, T/C (second compound 0.949 µM, first compound 31.6 pM): 120%
viability, T/C (second compound 0.949 µM, first compound 0.0001 µM): 116%
viability, T/C (second compound 0.949 µM, first compound 0.000316 µM): 111%
viability, T/C (second compound 0.949 µM, first compound 0.001 µM): 119%
viability, T/C (second compound 0.949 µM, first compound 0.00316 µM): 111%
viability, T/C (second compound 0.949 µM, first compound 0.01 µM): 118%
viability, T/C (second compound 3 µM, first compound 31.6 pM): 119%
viability, T/C (second compound 3 µM, first compound 0.0001 µM): 117%
viability, T/C (second compound 3 µM, first compound 0.000316 µM): 98.7%
viability, T/C (second compound 3 µM, first compound 0.001 µM): 106%
viability, T/C (second compound 3 µM, first compound 0.00316 µM): 114%
viability, T/C (second compound 3 µM, first compound 0.01 µM): 114%
viability, T/C (second compound 9.49 µM, first compound 31.6 pM): 118%
viability, T/C (second compound 9.49 µM, first compound 0.0001 µM): 119%
viability, T/C (second compound 9.49 µM, first compound 0.000316 µM): 113%
viability, T/C (second compound 9.49 µM, first compound 0.001 µM): 109%
viability, T/C (second compound 9.49 µM, first compound 0.00316 µM): 62.5%
viability, T/C (second compound 9.49 µM, first compound 0.01 µM): 13.1%
viability, T/C (second compound 30 µM, first compound 31.6 pM): 115%
viability, T/C (second compound 30 µM, first compound 0.0001 µM): 123%
viability, T/C (second compound 30 µM, first compound 0.000316 µM): 111%
viability, T/C (second compound 30 µM, first compound 0.001 µM): 114%
viability, T/C (second compound 30 µM, first compound 0.00316 µM): 119%
viability, T/C (second compound 30 µM, first compound 0.01 µM): 31.2%

Cn1cnc2c(F)c(Nc3ccc(Br)cc3Cl)c(C(=O)NOCCO)cc21 + CC(C)NCC(C(=O)N1CCN(c2ncnc3c2C(C)CC3O)CC1)c1ccc(Cl)cc1
IC50 (second compound 0.3 µM): < 9.49 nM
IC50 (second compound 0.949 µM): < 9.49 nM
IC50 (second compound 3 µM): < 9.49 nM
IC50 (second compound 9.49 µM): < 9.49 nM
IC50 (second compound 30 µM): < 9.49 nM
viability, T/C [1]: 36.2%
viability, T/C [2]: 15.6%
viability, T/C (second compound 0.3 µM, first compound 0.0949 µM): 5.04%
viability, T/C (second compound 0.3 µM, first compound 0.3 µM): 5.04%
viability, T/C (second compound 0.3 µM, first compound 0.949 µM): 2.85%
viability, T/C (second compound 0.3 µM, first compound 3 µM): 1.59%
viability, T/C [3]: 32.6%
viability, T/C [4]: 12.9%
viability, T/C (second compound 0.949 µM, first compound 0.0949 µM): 4.14%
viability, T/C (second compound 0.949 µM, first compound 0.3 µM): 2.7%
viability, T/C (second compound 0.949 µM, first compound 0.949 µM): 1.73%
viability, T/C (second compound 0.949 µM, first compound 3 µM): 1.41%
viability, T/C [5]: 24.3%
viability, T/C [6]: 10.2%
viability, T/C (second compound 3 µM, first compound 0.0949 µM): 2.52%
viability, T/C (second compound 3 µM, first compound 0.3 µM): 1.7%
viability, T/C (second compound 3 µM, first compound 0.949 µM): 1.41%
viability, T/C (second compound 3 µM, first compound 3 µM): 0.98%
viability, T/C [7]: 19.3%
viability, T/C [8]: 9.42%
viability, T/C (second compound 9.49 µM, first compound 0.0949 µM): 2.79%
viability, T/C (second compound 9.49 µM, first compound 0.3 µM): 1.33%
viability, T/C (second compound 9.49 µM, first compound 0.949 µM): 0.9%
viability, T/C (second compound 9.49 µM, first compound 3 µM): 0.56%
viability, T/C [9]: 21.7%
viability, T/C [10]: 8.51%
viability, T/C (second compound 30 µM, first compound 0.0949 µM): 2.57%
viability, T/C (second compound 30 µM, first compound 0.3 µM): 0.97%
viability, T/C (second compound 30 µM, first compound 0.949 µM): 0.37%
viability, T/C (second compound 30 µM, first compound 3 µM): 0.35%
